# Measurements published in US10023615B2, “Efficient transport into white blood cells” (priority 2008, dated 2018).
# Square brackets hold non-standard residues; d marks the D form. Ends that are not written are not given here.
# How the values were obtained:
# [1] = test system: liver and lymph nodes; assay: FITC-XG-102 and FITC-D-TAT localization in liver and lymph nodes; format: in vivo, Sprague Dawley rat; settings: 1 mg/kg i.v., 6 h post-injection
# From the text: FIG. 22A and FIG. 22B: 22A: FITC-XG-102 (SEQ ID NO: 233) localization in the liver. Three cellular fields of FITC-XG-102-labelled cells isolated from liver. From left to right, FITC-labelled XG-102, corresponding DAPI nuclear stain and merge of both images. […] Typicall Kupfer cell shape and nucleus can be differentiated from hepatocytes by their shape. Small and triangle in Kupfer cells in contrast to big exagonal, well organized hepatocytes. Obj 63; bar, 20 μm. 22B: FITC-D-TAT (SEQ ID NO: 4) localization in the liver. Two cellular fields of FITC-D-TAT-labelled cells isolated from liver. From left to right, FITC-labelled XG-102, corresponding DAPI nuclear stain and merge of both images. […] Typicall Kupfer cell shape and nucleus can be differentiated from hepatocytes by their shape. Small and triangle in Kupfer cells in contrast to big exagonal, well organized hepatocytes. Obj 63; bar, 20 μm.
# (§1) FIG. 23A and FIG. 23B: 23A: FITC-XG-102 (SEQ ID NO: 233) localization in lymph nodes. Cellular field of FITC-XG-102-labelled cells isolated from lymph nodes. Upper panels from left to right: the composite image is organized with one cellular field stained with FITC-XG-102 (left), Dapi for nuclear stain (middle) and the corresponding merged image (right). In the lower panels, a zoomed cell cluster of each image is illustrated. […] The absence of FITC staining in the lymphoid follicles allows distinguishing from the medullary corde and cortex area. Medullary zone seems to have incorporated the FITC-XG-102, composed in majority by macrophages. Obj 10; bar, 50 μm.
# as §1, with “23B:” for “FIG. 23A and FIG. 23B:”, “FITC-D-TAT” for “23A: FITC-XG-102”, “4)” for “233)”, “FITC-D-TAT-labelled” for “FITC-XG-102-labelled”, “FITC-D-TAT” for “FITC-XG-102”, “FITC-D-TAT,” for “FITC-XG-102,”
# Female Sprague Dawley rat was injected i.v. in the tail with either 1 mg/kg of FITC-XG102 (SEQ ID NO:233) or 1 mg/kg FITC-D-TAT (SEQ ID NO:4). Rats were sacrified 6 h post-injection using a lethal dose of sodium pentobarbital (150 mg/kg i.p.). For histological analysis and during narcosis, rats were perfused through the heart with 4% paraformaldehyde (PFA) in PBS. Organs (liver and lymph nodes) were cryoprotected in sucrose (30% in PBS), frozen using liquid isopentane and kept for further cryostat sectioning. Sections of 14 μm were incubated for 5 min in PBS before Hoechst staining for 2 min at RT (1 μg/ml). […]
# [2] = test system: Kupffer cells (CD-14 positive cells) of the liver; assay: Liver cell localization of FITC-D-TAT after i.v. injection; format: in vivo, mouse; settings: 0.1 mg/kg i.v.
# Description: FIG. 5: (A): Primary cultured macrophages were incubated with XG-102 (SEQ ID NO: 233) and extensively washed. […] (B): Mice were injected i.v. with 0.1 mg/kg FITC-D-TAT (SEQ ID NO: 4 plus FITC) and were sacrificed 24 hours later with PAF perfusion through the heart. Slices were obtained after cryoprotection using cryostat.
# Mice were injected i.v. with 0.1 mg/kg of FITC-D-TAT (SEQ ID NO: 4) and were sacrificed by perfusion 24 h later. Liver was removed, cryoprotected and cut into slices with a cryostat. D-TAT was directly visualized via FITC fluorescence and cell nuclei were labeled with Hoechst dye. Hepatocytes are big cells (89% of liver cells) that display a large nucleus, whereas Kupffer cells (resident macrophages of the liver) represent approximately 10% of the cells and are small and thin, elongated cells with small nucleus.
# [3] = test system: TC-3 cells; assay: Inhibition of IL-1 induced pancreatic beta-cell death; format: cell-based; settings: 1 μM single addition, IL-1 every two days, 15 days
# Description: Inhibition of IL-1 induced pancreatic beta-cell death by the D-TAT-IB1(s) peptide was analyzed. TC-3 cells were incubated for 30 minutes with one single addition of the indicated peptides (1, μM), then IL-1 (10 ng/ml) was added.
# Apoptotic cells were then counted after two days of incubation with IL-1 by use of Propidium Iodide and Hoechst 33342 nuclear staining. A minimum of 1,000 cells were counted for each experiment.
# Long term inhibition of IL-1P induced cell-death by the D-TAT-IB1 peptide was also analyzed. TC-3 cells were incubated for 30 minutes with one single addition of the indicated peptides (1 μM), then IL-1 (10 ng/ml) was added, followed by addition of the cytokine every two days. Apoptotic cells were then counted after 15 days of incubation with IL-1 by use of propidium iodide and Hoechst 33342 nuclear staining. […] A minimum of 1.000 cells were counted for each experiment.
# [4] = test system: Monocytes (CD14); assay: Flow cytometry of FITC-transporter content in primary human white blood cells: monocytes; format: cell-based; settings: 1 uM, 30 min
# From the text: (§2) Primary human white blood cells (WBC) were obtained from whole blood after red blood cell lysis. […] Cells containing D-TAT-FITC and r3-L-TAT-FITC were finally analysed by flow cytometry to measure their respective transporter content.
# [5] = test system: HL-60 cell line (Leukemia); assay: Time dependant internalization of FITC-labeled TAT derived transporter constructs into HL-60 cells; format: cell-based; settings: 10 μM; 30 min, 1, 6 or 24 hours
# Description: FIG. 3: depicts the results of the time dependant internalization (uptake) of FITC-labeled TAT derived transporter constructs into cells of the HL-60 cell line. […] HL-60 cells were incubated 30 min, 1, 6 or 24 hours with […] of the TAT-derivative transporters. The cells were then washed twice with an acidic buffer (0.2 M Glycin, 0.15 M NaCl, pH 3.0) and twice with PBS. Cells were broken by the addition of RIPA lysis buffer. The relative amount of internalized peptide was then determined by reading the fluorescence intensity (Fusion Alpha plate reader; PerkinElmer) of each extract followed by background substraction and protein content normalization. […]
# [6] = test system: Neutrophils (CD15); assay: Flow cytometry of FITC-transporter content in primary human white blood cells: neutrophils; format: cell-based; settings: 1 uM, 30 min
# From the text: as §2
# [7] = test system: U937 lymphoma cells; assay: Uptake (internalization) of FITC-labeled TAT derived transporter constructs in U937 cells, fluorescence plate reader; format: cell-based; settings: 10 μM, U937, Lymphoma, 24 h
# Description: Cells were plated into poly-DL-lysine coated dishes at a concentration of 1×10^6 cells/ml. Plates were then incubated for 24 h at 37° C., 5% CO2, and 100% relative humidity prior to the addition of a known concentration of peptide. After peptide addition, the cells were incubated 30 min, 1, 6 or 24 h at 37° C., 5% CO2, and 100% relative humidity. Cells were then washed twice with an acidic buffer (Glycin 0.2 M, NaCl 0.15 M, pH 3.0) in order to remove the cell-surface adsorbed peptide (see Kameyama et al., (2007), Biopolymers, 88, 98-107). […] The cell wash using an acidic buffer was thus employed to remove the cell-surface adsorbed peptides. […] Cells were broken by the addition of the RIPA lysis buffer. The relative amount of internalized peptide was then determined by fluorescence after background substraction and protein content normalization. • The steps are thus: 1. […] Analysis of peptide internalization with a fluorescence plate reader • f) Cell Culture and Peptide Treatment • (1) The 6 well culture plates are coated with 3 ml of Poly-D-Lys (Sigma P9011; 25 μg/ml in PBS), the 24 well plates with 600 μl and the 96 well plates with 125 μl and incubated for 4 h at 37° C., CO2 5% and 100% relative humidity. • (2) After 4 hours the dishes were washed twice with 3.5 ml PBS, 700 μl or 150 μl PBS for the 6, 24 or 96 well plates, respectively. • (3) The cells were plated into the dishes in 2.4 ml medium (RPMI) at plating densities of 1′000′000 cells/ml for suspension cells. After inoculation, the plates were incubated at 37° C., 5% CO2 and 100% relative humidity for 24 hours prior to the addition of the peptide. Adherent cells should be at a density of 90-95% the day of treatment and were plated in DMEM :
# • (4) The cells were treated with the desired concentration of FITC labeled peptide (stock solution at a concentration of 10 mM in H2O). • (5) Following peptide addition, the cells were incubated 0 to 24 hours (e.g. 30 min, 1, 6 or 24 hours) at 37° C., CO2 5% and 100% relative humidity. • Acidic Wash and Cellular Extracts: • (6) The extracts were cooled on ice. • Suspension cells (or cells, which don attach well to the dish): • Transfer the cells in ? […] To recover the maximum of cells, wash the dish with 1 ml of PBS. • Harvest the cells 2 min at 2400 rpm max. • Suspend the cells in 1 ml cold PBS. • Transfer the cells into a coated “Eppendorf tube” (coated with 1 ml of poly D-Lys for 4 hours and washed twice with 1 ml PBS). • Wash three times with 1 ml of cold acidic wash buffer and centrifuge 2 min at 2400 rpm max. Beware of the spreading of the cells in the “eppendorf”. • Wash twice with 1 ml cold PBS to neutralize. • Add 50 μl of lysis RIPA Buffer. • Incubate 30 min-1 h on ice with agitation. • Adherent Cells: • Wash three times with 3 ml, 1 ml or 200 μl (for 6, 24 or 96 well plates, respectively) of cold acidic wash buffer. Beware of the cells who detach from the dish. • Wash twice with 1 ml cold PBS (for 6, 24 or 96 well plates, respectively) to neutralize. • Add 50 μl of lysis RIPA buffer. • Incubate 30 min-1 h on ice with agitation. • Scrap the cells with a cold scrapper. The 24 and 96 well plates were directly centrifuged at 4000 rpm at 4° for 15 min to remove the cellular debris. Then the supernatants (100 or 50 ml respectively for the 24 or 96 well plates) were directly transferred in a dark 96 well plated.
# [8] = test system: Lymphocytes T (CD3); assay: Flow cytometry of FITC-transporter content in primary human white blood cells: lymphocytes T; format: cell-based; settings: 1 uM, 30 min
# From the text: as §2
# [9] = test system: Lymphocytes B (CD19); assay: Flow cytometry of FITC-transporter content in primary human white blood cells: lymphocytes B; format: cell-based; settings: 1 uM, 30 min
# From the text: as §2
# [10] = test system: U937 cells; assay: Intracellular concentration of transporter constructs subsequent to uptake into U937 cells; format: cell-based; settings: U937 cells, 10 μM construct
# Description: 9. Determination of Intracellular Concentration of Specific Transporter Constructs Subsequent to Uptake (Internalization) of these Peptides into U937 Cells • According to a further experiment, the concentration of specific transporter constructs subsequent to uptake (internalization) of these peptides into U937 cells were determined.
# [11] = test system: dissociated cortical primary neurons; assay: Confocal microscopy of FITC-labeled TAT derivative transporters in cortical primary neurons; format: cell-based, rat; settings: 500 nM, 24 hours
# Description: 8.4 Internalization Experiments and Analysis • The time dependant internalization (uptake) of FITC-labeled TAT derived transporter constructs into cells of the HL-60 cell line was carried out with materials and methods as described above. • Briefly, HL-60 cells were incubated 30 min, 1, 6 or 24 hours with 10 μM of the TAT-derivative transporters. The cells were then washed twice with an acidic buffer (0.2 M Glycin, 0.15 M NaCl, pH 3.0) and twice with PBS. Cells were broken by the addition of RIPA lysis buffer. The relative amount of internalized peptide was then determined by reading the fluorescence intensity (Fusion Alpha plate reader; PerkinElmer) of each extract followed by background substraction and protein content normalization. […] The dissociated cortical primary neurons from P2 Sprague Dawley rats were cultured 12 days in neurobasal medium before exposure 24 hours to 500 nM of the FITC-labeled • TAT derivative transporters. The cells were washed five times with PBS on ice and then mounted in fluorsave mounting medium without prior fixation. Acquisitions were performed on LSM510 metaconfocal microscope (Zeiss). Images were processed with LSM510 software and mounted using Adobe photoshop. Visualization by confocal microscopy of labeling with 500 nM FITC-transporters (A: green). Nuclei were stained by Hoechst (B: blue).
# [12] = test system: HepG2 hepatocarcinoma, HCT-116 tumoral colon; assay: Uptake of FITC-labeled TAT derived transporter constructs in HepG2 and HCT-116; format: cell-based, human; settings: 10 μM, 24 h
compound,measurement,setting,value
"N=C(N)NCCC[C@@H](NC(=O)[C@@H](CCCCN)NC(=O)[C@@H](CCCCN)NC(=O)[C@@H](CCCNC(=N)N)NC(=O)[C@@H](CCCNC(=N)N)NC(=O)[C@@H](CCC(N)=O)NC(=O)[C@@H](CCCNC(=N)N)NC(=O)[C@@H](CCCNC(=N)N)NC(=O)[C@@H](CCCNC(=N)N)NC(=O)CCNC(=S)Nc1ccc2c(c1)C(=O)OC21c2ccc(O)cc2Oc2cc(O)ccc21)C(N)=O [FITC-D-TAT, FITC-βA-rrrqrrkkr]",localization in lymph nodes,[1],decorates subcapsular sinus macrophages and constitutive migrating alveolar macrophages
same,localization in the liver,[1],efficiently decorates Kupfer cells in contrast to hepatocytes which only show a background staining level
same,cell type of accumulation in liver,[2]; 24 h,accumulates predominantly in Kupffer cells
same,colocalization with CD-14 positive cells in liver,[2]; 24 hours,colocalization between FITC-D-TAT labelled-cells and CD-14 positive cells
L-TAT-IB1(s): SEQ ID NO: 234: L-IB1(s) linked to 10 amino acid L-TAT carrier via two proline residues (GRKKRRQRRRPPRPKRPTTLNLFPQVPRSQD; Description of sequence L-TAT-IB1 (s)),long term protection against IL-1 induced cell-death,[3],"but not L-TAT-IB1(s), was able to confer long term (15 day) protection"
rKKRrQRRr ([dR]KKR[dR]QRR[dR]) [r3-L-TAT],binding to cell population,[4],"binds to monocytes, neutrophils and lymphocyte T cells"
same,time dependant internalization (uptake),[5],as effective as the D-TAT transporter construct
same,binding to cell population,[6],"binds to monocytes, neutrophils and lymphocyte T cells"
same,uptake (internalization),[7],most efficient
same,binding to cell population,[8],"binds to monocytes, neutrophils and lymphocyte T cells"
same,binding to cell population,[9],less efficiently to lymphocyte B cells
same,intracellular concentration of transporter construct subsequent to uptake,[10]; 2 h,2.34
same,intracellular concentration of transporter construct subsequent to uptake,[10]; 4 h,3.16
same,intracellular concentration of transporter construct subsequent to uptake,[10]; 6 h,3.56
same,intracellular concentration of transporter construct subsequent to uptake,[10]; 24 h,11.2
same,internalization seen by confocal microscopy,[11],internalized into the cytoplasm of the non stressed neurons
rrrRRRrrr [r6R3],uptake (internalization),[12],most efficient
